The values below come from patent US8431597B2, “Benzimidazole derivatives” (Pfizer Inc., priority 2007, dated 2013).

Structures can show the parent of a compound that is named as a salt.

The assay deals with T1, Smoothened (SMO) (Mus musculus, UniProt P56726).
T1 construct: C3H10T1/2 cells (ATCC #CCL-226) were split and seeded; endogenous in cells; host or cells: C3H10T1/2 (ATCC #CCL-226)
T1 sequence (P56726 33-793): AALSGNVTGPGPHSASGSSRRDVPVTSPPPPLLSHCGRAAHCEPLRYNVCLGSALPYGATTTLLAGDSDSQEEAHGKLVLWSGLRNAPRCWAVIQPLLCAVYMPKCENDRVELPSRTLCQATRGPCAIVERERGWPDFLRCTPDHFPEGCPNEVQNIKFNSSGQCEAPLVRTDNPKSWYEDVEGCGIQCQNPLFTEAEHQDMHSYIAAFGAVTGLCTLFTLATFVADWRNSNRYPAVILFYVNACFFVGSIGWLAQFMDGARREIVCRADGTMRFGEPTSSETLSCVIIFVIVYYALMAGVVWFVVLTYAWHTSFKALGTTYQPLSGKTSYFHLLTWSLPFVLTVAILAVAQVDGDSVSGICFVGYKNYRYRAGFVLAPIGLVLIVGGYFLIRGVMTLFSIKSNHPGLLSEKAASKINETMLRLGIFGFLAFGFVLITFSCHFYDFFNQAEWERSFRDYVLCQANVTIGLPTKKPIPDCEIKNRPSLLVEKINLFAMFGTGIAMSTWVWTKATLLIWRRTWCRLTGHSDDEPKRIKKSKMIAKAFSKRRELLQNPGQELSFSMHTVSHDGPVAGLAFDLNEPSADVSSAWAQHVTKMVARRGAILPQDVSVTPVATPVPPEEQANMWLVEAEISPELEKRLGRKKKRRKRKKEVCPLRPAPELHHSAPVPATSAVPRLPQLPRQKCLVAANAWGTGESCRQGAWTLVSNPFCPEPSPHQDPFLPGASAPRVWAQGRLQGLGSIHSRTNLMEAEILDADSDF
The experiment in a line: Smoothened (SMO)/Sonic Hedgehog (SHh) Transient Transcriptional Activation Assay (Gli-luciferase reporter in C3H10T1/2 cells). In kind it is cell-based, murine. To be noted: C3H 10T1/2, 2 μM compound; transfected C3H10T1/2 cells, recombinant human SHh 250 ng/mL, 20 hours, luciferase readout; read-out: SMO CELL % INHIBITION @ 2 μM. In a few lines: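 C3H10T1/2 cells transiently transfected with a murine Gli-responsive firefly luciferase reporter plus pEGFP were serum-starved 20 h in 0.5% calf serum. Compound (2 μM to 2 nM final) was added with recombinant human SHh at 250 ng/mL final for 20 h at 37 °C. Read-out was Dual-Glo luminescence.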
On the technique in general: In a reporter assay the amount or activity of a reporter protein is the signal.
What is called inhibition is the relative decrease from the control value, in per cent. For `COc1ccc(C(=O)N[C@@H]2CCN(C)[C@@H](c3nc4ccccc4[nH]3)C2)cc1` [Example 111, N-[(2R,4R)-2-(1H-benzimidazol-2-yl)-1-methylpiperidin-4-yl]-4-methoxybenzamide trifluoroacetate], the inhibition at 2 µM worked out at 83.2%.

As to `Cc1ccc(NC(=O)N[C@@H]2CCN(C3CCC3)[C@@H](c3nc4cc(C)c(C)cc4[nH]3)C2)cn1` [Example 152, 1-[(2R,4R)-1-cycobutyl-2-(5,6-dimethy-1H-benzimidazol-2-yl)piperidin-4-yl]-3-(6-methylpyridin-3-yl)urea triflouroacetate], the inhibition at 2 µM worked out at 106%.

Take `COc1ccc(NC(=O)N[C@@H]2CCN(C)[C@@H](c3nc4cc(C#N)ccc4[nH]3)C2)cn1` [Example 134, 1-[(2R,4R)-2-(5-cyano-1H-benzimidazol-2-yl)-1-methylpiperidin-4-yl]-3-(6-methoxypyridin-3-yl)urea hydrochloride]: the inhibition at 2 µM came out at 105%.

Consider `Cc1ccc(NC(=O)N[C@@H]2CCN(C)[C@@H](c3nc4ccccc4[nH]3)C2)cn1` [Example 81, 1-[(2R,4R)-2-(1H-benzimidazol-2-yl)-1-methylpiperidin-4-yl]-3-(6-methylpyridin-3-yl)urea hydrochloride], for which the inhibition at 2 µM is 97.8%.

As to `CN1CC[C@@H](NC(=O)c2ccc3c(c2)OCCO3)C[C@@H]1c1nc2cc(F)c(F)cc2[nH]1` [Example 57, N-[(2R,4R)-2-(5,6-difluoro-1H-benzimidazol-2-yl)-1-methylpiperidin-4-yl]-2,3-dihydro-1,4-benzodioxine-6-carboxamide hydrochloride], the inhibition at 2 µM turned out to be 104%.

As to `CC(C)CN1CC[C@@H](NC(=O)Nc2ccc(C#N)cc2)C[C@@H]1c1nc2ccccc2[nH]1` [Example 39, 1-[(2R,4R)-2-(1H-benzimidazol-2-yl)-1-isobutylpiperidin-4-yl]-3-(4-cyanophenyl)urea], the inhibition at 2 µM turned out to be 106%.

With `Cc1nc(C(F)(F)F)ccc1C(=O)N[C@@H]1CCN(C)[C@@H](c2nc3ccccc3[nH]2)C1` [Example 91, N-[(2R,4R)-2-(1H-benzimidazol-2-yl)-1-methylpiperidin-4-yl]-2-methyl-6-(trifluoromethyl)nicotinamide hydrochloride], the inhibition at 2 µM is 87.9%.

As to `CN1CC[C@@H](NC(=O)c2cc3c(cc2Cl)OCCO3)C[C@@H]1c1nc2cc(Cl)ccc2[nH]1` [Example 148, 7-chloro-N-[(2R,4R)-2-(5-chloro-1H-benzimidazol-2-yl)-1-methylpiperidin-4-yl]-2,3-dihydro-1,4-benzodioxine-6-carboxamide triflouroacetate], the inhibition at 2 µM worked out at 95%.

For the molecule `CN1CC[C@@H](NC(=O)Nc2ccc(C#N)cc2)C[C@@H]1c1nc2cc(Cl)ccc2[nH]1` [Example 64, 1-[(2R,4R)-2-(5-chloro-1H-benzimidazol-2-yl)-1-methylpiperidin-4-yl]-3-(4-cyanophenyl)urea hydrochloride], the inhibition at 2 µM amounted to 103%.

Take `CN1CC[C@@H](NC(=O)c2ccc3c(c2)OCCO3)C[C@@H]1c1nc2ccccc2[nH]1` [Example 86, N-[(2R,4R)-2-(1H-benzimidazol-2-yl)-1-methylpiperidin-4-yl]-2,3-dihydro-1,4-benzodioxine-6-carboxamide hydrochloride]: the inhibition at 2 µM worked out at 93.1%.

Regarding `Cc1ccc(NC(=O)N[C@@H]2CCN(C)[C@@H](c3nc4cc(C#N)ccc4[nH]3)C2)cn1` [Example 127, 1-[(2R,4R)-2-(5-cyano-1H-benzimidazol-2-yl)-1-methylpiperidin-4-yl]-3-(6-methylpyridin-3-yl)urea hydrochloride], the inhibition at 2 µM was 103%.

As to `CN1CC[C@@H](NC(=O)Nc2ccc(F)nc2)C[C@@H]1c1nc2ccccc2[nH]1` [Example 32, 1-[(2R,4R)-2-(1H-benzimidazol-2-yl)-1-methylpiperidin-4-yl]-3-(6-fluoropyridin-3-yl)urea hydrochloride], the inhibition at 2 µM worked out at 107%.

Consider `COc1cncc(NC(=O)N[C@@H]2CCN(C)[C@@H](c3nc4ccccc4[nH]3)C2)c1` [Example 96, 1-[(2R,4R)-2-(1H-benzimidazol-2-yl)-1-methylpiperidin-4-yl]-3-(5-methoxypyridin-3-yl)urea hydrochloride], for which the inhibition at 2 µM worked out at 76.3%.

As to `COc1ccc2[nH]c([C@H]3C[C@H](NC(=O)c4ccc5c(c4Cl)OCCO5)CCN3C)nc2c1` [Example 146, 5-chloro-N-[(2R,4R)-2-(5-methoxy-1H-benzimidazol-2-yl)-1-methylpiperidin-4-yl]-2,3-dihydro-1,4-benzodioxine-6-carboxamide triflouroacetate], the inhibition at 2 µM came to 107%.

For the molecule `COc1ccc2[nH]c([C@H]3C[C@H](NC(=O)Nc4ccc(C(F)(F)F)nc4)CCN3C)nc2c1` [Example 62, 1-[(2R,4R)-2-(5-methoxy-1H-benzimidazol-2-yl)-1-methylpiperidin-4-yl]-3-[6-(trifluoromethyl)pyridin-3-yl]urea hydrochloride], the inhibition at 2 µM turned out to be 104%.

For the molecule `Cc1ccc2nc([C@@H]3C[C@@H](NC(=O)Nc4ccc(Cl)c(C(F)(F)F)c4)CN3C)[nH]c2c1` [Example 17, 1-[4-chloro-3-(trifluoromethyl)phenyl]-3-[(3R,5S)-1-methyl-5-(6-methyl-1H-benzimidazol-2-yl)pyrrolidin-3-yl]urea], the inhibition at 2 µM came to 63.2%.

Consider `Cc1ccc2nc([C@@H]3C[C@@H](NC(=O)Nc4ccc(Cl)c(C(F)(F)F)c4)CN3C(C)C)[nH]c2c1` [Example 23, 1-[4-chloro-3-(trifluoromethyl)phenyl]-3-[(3R,5S)-1-isopropyl-5-(6-methyl-1H-benzimidazol-2-yl)pyrrolidin-3-yl]urea], for which the inhibition at 2 µM was 100%.

On to `CC(C)N1C[C@H](NC(=O)Nc2ccc(Cl)c(C(F)(F)F)c2)C[C@H]1c1nc2ccccc2[nH]1` [Example 84, 1-[(3R,5S)-5-(1H-benzimidazol-2-yl)-1-isopropyl-pyrrolidin-3-yl]-3-[4-chloro-3-(trifluoromethyl)phenyl]urea], for which the inhibition at 2 µM came to 95.4%.

For `CC(C)(C)OC(=O)N1C[C@@H](NC(=O)Nc2ccc(Cl)c(C(F)(F)F)c2)C[C@H]1c1nc2ccccc2[nH]1` [Example 8, tert-butyl (2S,4S)-2-(1H-benzimidazol-2-yl)-4-[({[4-chloro-3-(trifluoromethyl)phenyl]amino}carbonyl)amino]pyrrolidine-1-carboxylate], the inhibition at 2 µM was 57.1%.

Regarding `CN1CC[C@@H](NC(=O)c2ccc3c(c2)OCCO3)C[C@@H]1c1nc2ccc(C(F)(F)F)cc2[nH]1` [Example 79, N-{(2R,4R)-1-methyl-2-[6-(trifluoromethyl)-1H-benzimidazol-2-yl]piperidin-4-yl}-2,3-dihydro-1,4-benzodioxine-6-carboxamide hydrochloride], the inhibition at 2 µM was found to be 99.2%.

As for `CN1CC[C@@H](NC(=S)c2ccc3c(c2)OCCO3)C[C@@H]1c1nc2ccccc2[nH]1` [Example 140, N-[(2R,4R)-2-(1H-benzimidazol-2-yl)-1-methylpiperidin-4-yl]-2,3-dihydro-1,4-benzodioxine-6-carbothioamide hydrochloride], the inhibition at 2 µM was found to be 107%.

For `CN1CC[C@@H](NC(=O)c2cnc3c(c2)OCCO3)C[C@@H]1c1nc2ccccc2[nH]1` [Example 97, N-[(2R,4R)-2-(1H-benzimidazol-2-yl)-1-methylpiperidin-4-yl]-2,3-dihydro[1,4]dioxino[2,3-b]pyridine-7-carboxamide hydrochloride], the inhibition at 2 µM stood at 75.4%.
